pIC50: −log10 of the molar value.
Key:
[1] = biological target: T1, recombinant rat L-type calcium channel (LTCC) subunits (α1c, α2δ, and β1) (Rattus norvegicus, UniProt P22002); test: FLIPR calcium mobilization assay for L-type calcium channel; assay type: cell-based; details: calcium mobilization in vitro assay; HEK293 cells expressing rat LTCC
T1 construct: expressed in transfected cells
Procedure: Recombinant human embryonal kidney cells (HEK293, ATCC) stably transfected with either N-type calcium channel (NTCC) subunits (α1b, α2δ, and ⊖3) or L-type calcium channel (LTCC) subunits (α1, α2δ, and β1) were routinely cultured in growth medium consisting of Dulbecco's Modified Eagles Medium containing 10% FBS, 100 U/mL penicillin, 100 μg/mL streptomycin, 4 mM L-glutamine, 500 μg/mL geneticin (G418), 20 μg/mL Blasticidin S (InVivogen, San Diego, Calif.) and 500 μg/mL zeocin (InVivogen).
FLIPR Calcium Mobilization Assay for L-Type Calcium Channel.
One day prior to performing this assay, HEK293 cells stably expressing recombinant rat L-type calcium channel (LTCC) subunits (α1c, α2δ, and β1) were trypsinized, then seeded on poly-D-lysine-coated 96-well clear-bottom black plates (Becton Dickinson, Franklin Lakes, N.J.) at 75,000 cells/well. On the day of the assay, the plates were washed with LTCC wash buffer (127 mM NaCl, 2 mM MgCl2, 700 μM NaH2PO4, 5 mM CaCl2, 5 mM NaHCO3, 8 mM HEPES, 10 mM glucose, pH 7.4), then loaded with 0.1 mL of LTCC wash buffer containing Fluo-4 (3 μM final concentration, Molecular Probes, Eugene, Oreg.). After 1 hour, the cells were washed with 0.1 mL LTCC wash buffer and resuspended in 0.05 mL LTCC assay buffer (same composition as LTCC wash buffer). Plates were then transferred to a FLIPR^96 for assay. The FLIPR measured basal Fluo-4 fluorescence for 15 seconds, then is added 0.05 mL of each compound tested diluted in LTCC assay buffer at final concentrations ranging from about 846 pM to about 17 μM. Fluo-4 fluorescence was then measured for 5 minutes. 0.1 mL KCl agonist dissolved in LTCC assay buffer was then added to the cells to produce a final concentration of 90 mM KCl, and fluorescence was measured for another 45 seconds. Data were collected over the entire time course and analyzed using Excel, Graph Pad Prism, or an in-house regression analysis software.

[2] = biological target: T2, N-type calcium channel (NTCC) (Homo sapiens, UniProt Q00975); test: FLIPR calcium mobilization assay for N-type calcium channel; assay type: cell-based; details: calcium mobilization in vitro assay; differentiated IMR32 cells
T2 construct: host or cells: IMR32 cells differentiated with dibutyryl cAMP and bromodeoxyuridine
Procedure: Unless noted otherwise, cell culture reagents were purchased from Mediatech of Herndon, Md. IMR32 cells (American Type Culture Collection, ATCC, Manassas, Va.) were routinely cultured in growth medium consisting of minimum essential medium containing 10% fetal bovine serum (FBS, Hyclone, Logan, Utah), 100 U/mL penicillin, 100 μg/mL streptomycin, 2 mM L-glutamine, 1 mM sodium pyruvate, and 1× MEM non-essential amino acids. 80-90% confluent flasks of cells were differentiated using the following differentiation medium: Growth medium plus 1 mM dibutyryl cyclic AMP (Sigma, St. Louis, Mo.), and 2.5 μM bromodeoxyuridine (Sigma). Cells were differentiated for 8 days by replacing differentiation medium every 2-3 days.
FLIPR Calcium Mobilization Assay for N-Type Calcium Channel.
One day prior to performing this assay, differentiated IMR32 cells were treated with 1× CellStripper, and seeded on poly-D-lysine-coated 96-well clear-bottom black plates (Becton Dickinson, Franklin Lakes, N.J.) at 200,000 cells/well. On the day of the assay, the cell plates were washed with IMR32 buffer (127 mM NaCl, 1 mM KCl, 2 mM MgCl2, 700 μM NaH2PO4, 5 mM CaCl2, 5 mM NaHCO3, 8 mM HEPES, 10 mM glucose, pH 7.4), then pre-stimulated with KCl and loaded as follows: 0.05 mL of IMR32 buffer, 0.05 mL of each compound tested diluted in IMR32 buffer containing 20 μM nitrendipine (Sigma), and 0.1 mL KCl dissolved in IMR32 buffer, plus Fluo-4 were added (3 μM final concentration, Molecular Probes, Eugene, Oreg.). Final test compound concentrations ranged from about 846 pM to about 17 μM, final nitrendipine concentration was 5 μM, and final KCl concentration was 90 mM. After 1 hour, the cells were washed twice with 0.05 mL of each compound is tested in nitrendipine-containing IMR32 buffer (no KCl or Fluo-4), and then replaced with 0.1 mL of each compound tested in nitrendipine-containing IMR32 buffer. Plates were then transferred to a Fluorimetric Imaging Plate Reader (FLIPR^96, Molecular Devices, Inc., Sunnyvale, Calif.) for assay. The FLIPR measured basal Fluo-4 fluorescence for 315 seconds (i.e., 5 minutes and 15 seconds), then added 0.1 mL KCl agonist dissolved in IMR32 buffer and measured fluorescence for another 45 seconds. Final test compound concentrations on the cells after FLIPR read ranged from about 846 pM to about 17 μM, final nitrendipine concentration was 5 μM, and final KCl concentration was 90 mM. Data were collected over the entire time course and analyzed using Excel, Graph Pad Prism (version 3.02, Graph Pad, San Diego, Calif.), or an in-house non-linear regression analysis software.

T2 sequence (Q00975 whole entry): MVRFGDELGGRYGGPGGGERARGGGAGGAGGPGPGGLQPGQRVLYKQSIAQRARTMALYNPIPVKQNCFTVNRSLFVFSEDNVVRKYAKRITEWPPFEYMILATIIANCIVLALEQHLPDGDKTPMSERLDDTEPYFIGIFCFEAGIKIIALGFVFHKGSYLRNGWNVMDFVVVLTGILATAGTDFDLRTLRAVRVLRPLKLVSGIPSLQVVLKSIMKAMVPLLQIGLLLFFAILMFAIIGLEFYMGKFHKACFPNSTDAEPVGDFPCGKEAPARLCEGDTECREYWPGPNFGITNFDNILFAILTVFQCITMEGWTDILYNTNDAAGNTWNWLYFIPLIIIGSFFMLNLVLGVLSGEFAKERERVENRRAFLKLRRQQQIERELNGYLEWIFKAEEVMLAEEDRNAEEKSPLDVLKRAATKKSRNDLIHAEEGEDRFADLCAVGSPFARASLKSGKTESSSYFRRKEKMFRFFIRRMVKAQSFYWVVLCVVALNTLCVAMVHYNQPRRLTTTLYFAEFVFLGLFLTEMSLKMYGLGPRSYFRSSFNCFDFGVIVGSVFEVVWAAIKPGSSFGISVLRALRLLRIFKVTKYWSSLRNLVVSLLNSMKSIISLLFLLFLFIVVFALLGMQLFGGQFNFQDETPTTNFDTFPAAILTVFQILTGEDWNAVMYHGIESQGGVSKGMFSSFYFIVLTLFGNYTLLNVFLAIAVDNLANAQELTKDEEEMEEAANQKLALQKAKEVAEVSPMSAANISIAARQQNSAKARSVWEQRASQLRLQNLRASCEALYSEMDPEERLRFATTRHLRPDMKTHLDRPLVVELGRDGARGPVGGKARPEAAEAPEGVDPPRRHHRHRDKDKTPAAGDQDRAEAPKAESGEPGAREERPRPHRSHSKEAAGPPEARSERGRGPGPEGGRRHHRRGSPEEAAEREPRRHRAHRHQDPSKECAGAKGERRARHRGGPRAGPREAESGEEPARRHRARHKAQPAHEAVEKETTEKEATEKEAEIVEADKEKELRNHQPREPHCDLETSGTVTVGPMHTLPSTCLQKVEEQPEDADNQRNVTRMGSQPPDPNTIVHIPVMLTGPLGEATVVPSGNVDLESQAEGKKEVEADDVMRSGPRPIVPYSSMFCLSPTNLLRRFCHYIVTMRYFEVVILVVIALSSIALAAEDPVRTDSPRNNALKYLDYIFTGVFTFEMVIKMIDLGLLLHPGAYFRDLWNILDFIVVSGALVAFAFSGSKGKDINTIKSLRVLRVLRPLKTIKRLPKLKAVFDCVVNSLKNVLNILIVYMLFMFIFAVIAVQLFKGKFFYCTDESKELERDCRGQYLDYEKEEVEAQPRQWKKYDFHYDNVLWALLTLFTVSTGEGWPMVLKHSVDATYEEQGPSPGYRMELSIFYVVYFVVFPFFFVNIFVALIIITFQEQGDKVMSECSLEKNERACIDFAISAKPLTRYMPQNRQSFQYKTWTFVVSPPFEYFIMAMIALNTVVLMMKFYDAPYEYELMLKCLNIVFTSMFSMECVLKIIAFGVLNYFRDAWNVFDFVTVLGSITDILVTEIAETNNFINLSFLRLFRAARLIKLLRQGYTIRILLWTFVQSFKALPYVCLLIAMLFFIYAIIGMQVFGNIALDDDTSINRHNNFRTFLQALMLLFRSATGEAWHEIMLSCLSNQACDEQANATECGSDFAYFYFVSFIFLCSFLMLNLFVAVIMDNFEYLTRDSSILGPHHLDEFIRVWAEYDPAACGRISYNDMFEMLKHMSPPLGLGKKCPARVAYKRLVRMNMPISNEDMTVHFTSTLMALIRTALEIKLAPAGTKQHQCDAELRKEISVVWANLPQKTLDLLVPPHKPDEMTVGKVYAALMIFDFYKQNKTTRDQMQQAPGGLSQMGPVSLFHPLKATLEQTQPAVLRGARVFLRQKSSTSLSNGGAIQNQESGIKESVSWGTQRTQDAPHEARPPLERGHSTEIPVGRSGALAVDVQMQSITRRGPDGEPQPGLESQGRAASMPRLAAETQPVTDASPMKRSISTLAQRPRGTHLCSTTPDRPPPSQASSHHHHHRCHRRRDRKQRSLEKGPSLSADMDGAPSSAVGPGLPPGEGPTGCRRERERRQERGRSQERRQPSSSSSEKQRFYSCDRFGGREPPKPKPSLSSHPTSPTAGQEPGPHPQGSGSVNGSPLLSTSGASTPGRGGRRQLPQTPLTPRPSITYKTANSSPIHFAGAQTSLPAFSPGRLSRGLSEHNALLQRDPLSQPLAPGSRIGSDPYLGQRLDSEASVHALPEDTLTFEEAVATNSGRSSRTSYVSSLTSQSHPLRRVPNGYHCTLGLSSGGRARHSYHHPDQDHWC
T2 sequence (P54289 25-956 partner limits assumed): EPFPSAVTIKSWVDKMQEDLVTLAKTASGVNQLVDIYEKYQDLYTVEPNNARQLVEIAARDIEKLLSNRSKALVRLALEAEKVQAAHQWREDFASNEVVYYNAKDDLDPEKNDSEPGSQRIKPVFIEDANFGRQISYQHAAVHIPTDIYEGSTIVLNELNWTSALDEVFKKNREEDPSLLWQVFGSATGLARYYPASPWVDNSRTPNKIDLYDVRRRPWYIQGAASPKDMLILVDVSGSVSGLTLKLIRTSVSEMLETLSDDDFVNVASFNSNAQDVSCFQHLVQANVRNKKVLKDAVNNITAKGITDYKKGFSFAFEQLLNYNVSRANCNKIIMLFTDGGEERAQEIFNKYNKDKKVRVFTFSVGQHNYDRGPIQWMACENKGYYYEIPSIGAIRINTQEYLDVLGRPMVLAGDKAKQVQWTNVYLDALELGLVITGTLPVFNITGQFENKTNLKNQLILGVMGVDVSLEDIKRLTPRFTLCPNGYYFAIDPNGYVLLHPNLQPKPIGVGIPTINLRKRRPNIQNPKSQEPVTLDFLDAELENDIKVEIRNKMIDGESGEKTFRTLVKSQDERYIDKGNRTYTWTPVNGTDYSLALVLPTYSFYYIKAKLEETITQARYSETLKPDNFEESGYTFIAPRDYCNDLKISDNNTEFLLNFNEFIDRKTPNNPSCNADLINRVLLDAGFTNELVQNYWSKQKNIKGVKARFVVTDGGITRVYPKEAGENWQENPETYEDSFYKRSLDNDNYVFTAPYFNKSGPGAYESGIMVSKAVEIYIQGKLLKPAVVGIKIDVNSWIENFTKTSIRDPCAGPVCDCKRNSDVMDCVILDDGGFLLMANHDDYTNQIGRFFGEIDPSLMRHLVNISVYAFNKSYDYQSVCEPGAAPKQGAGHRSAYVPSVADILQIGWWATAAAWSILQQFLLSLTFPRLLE
T2 sequence (P54289 957-1103 partner limits assumed): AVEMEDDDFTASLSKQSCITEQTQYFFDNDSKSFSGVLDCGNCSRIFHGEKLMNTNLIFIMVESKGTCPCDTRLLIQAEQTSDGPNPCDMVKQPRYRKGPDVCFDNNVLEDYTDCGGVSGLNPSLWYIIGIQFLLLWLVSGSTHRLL
T2 sequence (P54284 whole entry partner): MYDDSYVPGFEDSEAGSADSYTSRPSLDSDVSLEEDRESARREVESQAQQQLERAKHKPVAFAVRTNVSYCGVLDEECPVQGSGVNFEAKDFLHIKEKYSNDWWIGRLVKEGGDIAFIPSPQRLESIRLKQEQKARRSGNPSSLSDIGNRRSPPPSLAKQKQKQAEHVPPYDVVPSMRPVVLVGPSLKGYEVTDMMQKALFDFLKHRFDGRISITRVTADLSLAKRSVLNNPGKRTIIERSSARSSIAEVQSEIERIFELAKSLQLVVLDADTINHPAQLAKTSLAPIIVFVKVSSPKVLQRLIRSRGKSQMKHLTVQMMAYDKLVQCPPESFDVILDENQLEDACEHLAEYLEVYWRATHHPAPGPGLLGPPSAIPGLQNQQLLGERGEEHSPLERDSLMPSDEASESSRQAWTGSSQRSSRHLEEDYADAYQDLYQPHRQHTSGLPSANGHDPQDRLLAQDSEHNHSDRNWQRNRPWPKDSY

pIC50 [1] | pIC50 [2] | SMILES
< 4.70 | 6.21 | CC(C)N(C1CCN(CCCN(c2ccc(F)cc2)c2ccc(F)cc2)CC1)S(=O)(=O)c1cccc(C(F)(F)F)c1 [Compound 8, N-(1-{3-[Bis(4-fluorophenyl)amino]propyl}piperidin-4-yl)-N-isopropyl-3-trifluoromethylbenzenesulfonamide]
< 4.70 | 6.15 | O=C(Nc1ccc(F)cc1)C(=O)N1CCC(N(C2CC2)S(=O)(=O)c2cccc(C(F)(F)F)c2)CC1 [Compound 22, 2-{4-[Cyclopropyl-(3-trifluoromethylbenzenesulfonyl)amino]-piperidin-1-yl}-N-(4-fluorophenyl)-2-oxo-acetamide]
 | 5.94 | CCC(NCc1ccccc1)C(=O)N1CCC(N(C(C)C)S(=O)(=O)c2cccc(C(F)(F)F)c2)CC1 (stereo not shown) [Compound 91, N-[1-(2-Benzylaminobutyryl)-piperidin-4-yl]-N-isopropyl-3-trifluoromethylbenzenesulfonamide]
 | 5.28 | CCC(NC1CC1)C(=O)N1CCC(N(C(C)C)S(=O)(=O)c2cccc(C(F)(F)F)c2)CC1 (stereo not shown) [Compound 92, N-[1-(2-Cyclopropylaminobutyryl)-piperidin-4-yl]-N-isopropyl-3-trifluoromethylbenzenesulfonamide]
 | 5.65 | COCCNCC(=O)N1CCC(N(C(C)C)S(=O)(=O)c2cccc(C(F)(F)F)c2)CC1 [Compound 95, N-Isopropyl-N-{1-[2-(2-methoxy-ethylamino)acetyl]-piperidin-4-yl}-3-trifluoromethylbenzenesulfonamide]
 | 5.63 | COc1ccc(CNCC(=O)N2CCC(N(C3CC3)S(=O)(=O)c3ccccc3)CC2)cc1 [Compound 97, N-Cyclopropyl-N-{1-[2-(4-methoxy-benzylamino)acetyl]-piperidin-4-yl}-benzenesulfonamide]
 | 5.57 | O=C(CNCc1ccc(F)cc1)N1CCC(N(C2CC2)S(=O)(=O)c2ccccc2)CC1 [Compound 98, N-Cyclopropyl-N-{1-[2-(4-fluorobenzylamino)acetyl]-piperidin-4-yl}-benzenesulfonamide]
 | 5.70 | CC(C)CNC(=O)CCN1CCC(N(C(C)C)S(=O)(=O)c2cccc(C(F)(F)F)c2)CC1 [Compound 107c, N-Isobutyl-3-{4-[isopropyl-(3-trifluoromethylbenzenesulfonyl)amino]-piperidin-1-yl}-propionamide]
 | 5.83 | NCCN1CCC(N(C2CC2)S(=O)(=O)c2cccc(C(F)(F)F)c2)CC1 [Compound 114, N-[1-(2-Aminoethyl)-piperidin-4-yl]-N-cyclopropyl-3-trifluoromethylbenzenesulfonamide]
 | 5.50 | O=C(CC(=O)N1CCC(NS(=O)(=O)c2cccc(C(F)(F)F)c2)CC1)Nc1ccc(F)cc1F [Compound 115, N-(2,4-Difluorophenyl)-3-oxo-3-[4-(3-trifluoromethylbenzenesulfonylamino)-piperidin-1-yl]-propionamide]
 | 5.91 | O=C(CN1CCC(NS(=O)(=O)c2cccc(C(F)(F)F)c2)CC1)Nc1ccc(F)cc1 [Compound 116, N-(4-Fluorophenyl)-2-[4-(3-trifluoromethylbenzenesulfonylamino)-piperidin-1-yl]-acetamide]
 | 5.91 | O=C(CN1CCC(NS(=O)(=O)c2cccc(C(F)(F)F)c2)CC1)Nc1ccc(C(F)(F)F)c(C(F)(F)F)c1 [N-(3,4-bis-trifluoromethylphenyl)-2-{4-[(3-trifluoromethylbenzenesulfonyl)amino]-piperidin-1-yl}-acetamide]
 | 5.03 | CC(C)N(C1CCN(C(=O)C(C)(C)N)CC1)S(=O)(=O)c1cccc(C(F)(F)F)c1 [N-[1-(2-amino-2-methyl-propionyl)-piperidin-4-yl]-N-isopropyl-3-trifluoromethylbenzenesulfonamide]
 | 6.33 | CC(C)N(C1CCN(C(=O)C(N)Cc2csc3ccccc23)CC1)S(=O)(=O)c1cccc(C(F)(F)F)c1 (stereo not shown) [N-[1-(2-amino-3-benzo[b]thiophen-3-yl-propionyl)-piperidin-4-yl]-N-isopropyl-3-trifluoromethyl-benzenesulfonamide]
 | 5.59 | CC(C)N(C1CCN(C(=O)C(N)Cc2cccc3ccccc23)CC1)S(=O)(=O)c1cccc(C(F)(F)F)c1 (stereo not shown) [N-[1-(2-amino-3-naphthalen-1-yl-propionyl)-piperidin-4-yl]-N-isopropyl-3-trifluoromethyl-benzenesulfonamide]
 | 5.53 | C=CCC(N)C(=O)N1CCC(N(C(C)C)S(=O)(=O)c2cccc(C(F)(F)F)c2)CC1 (stereo not shown) [N-[1-(2-amino-pent-4-enoyl)-piperidin-4-yl]-N-isopropyl-3-trifluoromethyl-benzenesulfonamide]
 | 5.22 | C#CCC(N)C(=O)N1CCC(N(C(C)C)S(=O)(=O)c2cccc(C(F)(F)F)c2)CC1 (stereo not shown) [N-[1-(2-amino-pent-4-ynoyl)-piperidin-4-yl]-N-isopropyl-3-trifluoromethyl-benzenesulfonamide]
 | 5.96 | CC(C)N(C1CCN(C(=O)CC(N)c2cccs2)CC1)S(=O)(=O)c1cccc(C(F)(F)F)c1 (stereo not shown) [N-[1-(3-amino-3-thiophen-2-yl-propionyl)-piperidin-4-yl]-N-isopropyl-3-trifluoromethyl-benzenesulfonamide]
 | 5.08 | CC(C)N(C1CCN(C(=O)C2(N)CCOCC2)CC1)S(=O)(=O)c1cccc(C(F)(F)F)c1 [N-[1-(4-amino-tetrahydro-pyran-4-carbonyl)-piperidin-4-yl]-N-isopropyl-3-trifluoromethyl-benzenesulfonamide]
 | 5.54 | CC(C)N(C1CCN(C(=O)C2CNC2)CC1)S(=O)(=O)c1cccc(C(F)(F)F)c1 [N-[1-(azetidine-3-carbonyl)-piperidin-4-yl]-N-isopropyl-3-trifluoromethyl-benzenesulfonamide]
 | 6.00 | COc1ccc(NCCC(=O)N2CCC(N(C(C)C)S(=O)(=O)c3cccc(C(F)(F)F)c3)CC2)cc1 [N-isopropyl-N-{1-[3-(4-methoxy-phenylamino)-propionyl]-piperidin-4-yl}-3-trifluoromethyl-benzenesulfonamide]
 | 5.98 | CC(C)N(C1CCN(C(=O)CCNc2cccc(F)c2)CC1)S(=O)(=O)c1cccc(C(F)(F)F)c1 [N-{1-[3-(3-fluoro-phenylamino)-propionyl]-piperidin-4-yl}-N-isopropyl-3-trifluoromethyl-benzenesulfonamide]
 | 5.86 | CC(C)N(C1CCN(C(=O)CCNc2ccc(C#N)cc2)CC1)S(=O)(=O)c1cccc(C(F)(F)F)c1 [N-{1-[3-(4-cyano-phenylamino)-propionyl]-piperidin-4-yl}-N-isopropyl-3-trifluoromethyl-benzenesulfonamide]

Source: patent US8791264B2 (Purdue Pharma L.P., priority 2006, dated 2014)
